Source: patent US7560470B2, “Heterocyclyl-3-sulfonylindazoles as 5-hydroxytryptamine-6 ligands” (Wyeth, priority 2003, dated 2009)
Structures can show the parent of a compound that is named as a salt.

Biological target: T1, human cloned 5-HT6 receptors (Homo sapiens, UniProt P50406)
T1 construct: expressed in transfected cells; host or cells: HeLa cells (membrane preparation)
Test: 5-HT6 binding affinity, [3H]-LSD displacement on membranes of Hela cells expressing human cloned 5-HT6 receptors
Conditions: 5-HT6 Binding Ki, [3H]-LSD 3.0 nM, Hela cell membranes, 120 min at room temperature
Experimental: The affinity of test compounds for the serotonin 5-HT6 receptor is evaluated in the following manner. Cultured Hela cells expressing human cloned 5-HT6 receptors are harvested and centrifuged at low speed (1,000×g) for 10.0 min to remove the culture media. The harvested cells are suspended in half volume of fresh physiological phosphate buffered saline solution and recentrifuged at the same speed. This operation is repeated. The collected cells are then homogenized in ten volumes of 50 mM Tris.HCl (pH 7.4) and 0.5 mM EDTA. The homogenate is centrifuged at 40,000×g for 30.0 min and the precipitate is collected. The obtained pellet is resuspended in 10 volumes of Tris.HCl buffer and recentrifuged at the same speed. The final pellet is suspended in a small volume of Tris.HCl buffer and the tissue protein content is determined in aliquots of 10-25 μl volumes. Bovine Serum Albumin is used as the standard in the protein determination according to the method described in Lowry et al., J. Biol. Chem., 193:265 (1951). The volume of the suspended cell membranes is adjusted to give a tissue protein concentration of 1.0 mg/ml of suspension. The prepared membrane suspension (10 times concentrated) is aliquoted in 1.0 ml volumes and stored at −70° C. until used in subsequent binding experiments.
Binding experiments are performed in a 96 well microtiter plate format, in a total volume of 200 μl. […] The test compounds are added in 20.0 μl volume.
The reaction is allowed to proceed in the dark for 120 min at room temperature, at which time, the bound ligand-receptor complex is filtered off on a 96 well unifilter with a Packard Filtermate® 196 Harvester. The bound complex caught on the filter disk is allowed to air dry and the radioactivity is measured in a Packard TopCount® equipped with six photomultiplier detectors, after the addition of 40.0 μl Microscint®−20 scintillant to each shallow well. The unifilter plate is heat-sealed and counted in a PackardTopCount® with a tritium efficiency of 31.0%.
Binding in the presence of varying concentrations of test compound is expressed as a percentage of specific binding in the absence of test compound. The results are plotted as log % bound versus log concentration of test compound. Nonlinear regression analysis of data points with a computer assisted program Prisms® yields both the IC50 and the Ki values of test compounds with 95% confidence limits.
The amount of displacement by the test compound is given in percent (%) inhibition and is derived from the following equation:
[formula] where B0 is the amount of CPM bound in the presence of the testing agent. NSB represents the CPM bound in the presence of a saturating concentration of a displacer and TB represents the total amount of CPM bound at zero (0) concentration of test compound.
Alternatively, a linear regression line of data points is plotted, from which the IC50 value is determined and the Ki value is determined based upon the following equation: Ki=IC50/(1+L/KD) where L is the concentration of the radioactive ligand used and KD is the dissociation constant of the ligand for the receptor, both expressed in nM.

T1 sequence (P50406 whole entry): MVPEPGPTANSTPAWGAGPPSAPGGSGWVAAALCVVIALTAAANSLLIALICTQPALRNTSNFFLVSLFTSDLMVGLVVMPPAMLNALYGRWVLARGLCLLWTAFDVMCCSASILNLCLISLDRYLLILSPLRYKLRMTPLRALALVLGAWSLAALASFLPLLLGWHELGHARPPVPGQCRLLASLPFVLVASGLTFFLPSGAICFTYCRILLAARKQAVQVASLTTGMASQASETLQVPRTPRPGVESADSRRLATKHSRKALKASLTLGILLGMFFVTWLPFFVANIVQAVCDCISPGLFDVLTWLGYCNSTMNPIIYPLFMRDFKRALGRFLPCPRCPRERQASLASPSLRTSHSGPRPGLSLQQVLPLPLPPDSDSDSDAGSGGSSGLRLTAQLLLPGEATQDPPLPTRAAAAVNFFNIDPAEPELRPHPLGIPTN

Structure (SMILES) | Ki [nM]
CCCCn1nc(S(=O)(=O)c2cccc3ccccc23)c2cc(N3CCN(C)CC3)ccc21 [Example 48] | 4
CN1CCN(c2ccc3[nH]nc(S(=O)(=O)c4cccs4)c3c2)CC1 [Example 54] | 8

Same assay, conditions: [3H]-LSD 3.0 nM, Hela cell membranes, 120 min at room temperature; read-out: 5-HT6 Binding Ki

Structure (SMILES) | Ki [nM]
O=S(=O)(c1ccccc1)c1n[nH]c2ccc(N3CCN(Cc4ccccc4)CC3)cc12 [Example 4, 5-(4-Benzylpiperazin-1-yl)-3-(phenylsulfonyl)-1H-indazole hydrochloride] | 86
COc1cc2[nH]nc(S(=O)(=O)c3ccccc3)c2cc1N1CCN(Cc2ccccc2)CC1 [Example 7, 5-(4-Benzylpiperazin-1-yl)-6-methoxy-3-(phenylsulfonyl)-1H-indazole hydrochloride] | 113
COc1cc2c(cc1N1CCN(Cc3ccccc3)CC1)c(S(=O)(=O)c1ccccc1)nn2-c1ccccc1 [Example 8, 5-(4-Benzylpiperazin-1-yl)-6-methoxy-1-phenyl-3-(phenylsulfonyl)-1H-indazole hydrochloride] | 399
COc1cc2c(cc1N1CCNCC1)c(S(=O)(=O)c1ccccc1)nn2-c1ccccc1 [Example 9, 6-Methoxy-1-phenyl 3-(phenylsulfonyl)-5-piperazin-1-yl-1H-indazole hydrochloride] | 97
COc1cc2c(cc1N1CCNCC1)c(S(=O)(=O)c1ccccc1)nn2-c1ccc(C(F)(F)F)cc1 [Example 10, 6-Methoxy-3-(phenylsulfonyl)-5-(piperazin-1-yl)-1-[4-(trifluoromethyl)phenyl]-1H-indazole hydrochloride] | 224
CCn1nc(S(=O)(=O)c2ccccc2)c2cc(N3CCN(Cc4ccccc4)CC3)ccc21 [Example 12, 5-(4-Benzylpiperazin-1-yl)-1-ethyl-3-(phenylsulfonyl)-1H-indazole dihydrochloride] | 64
CN1CCN(c2ccc3[nH]nc(S(=O)(=O)c4cccc5ccccc45)c3c2)CC1 [Example 14] | 1
CN1CCN(c2ccc3[nH]nc(S(=O)(=O)c4ccc(Cl)s4)c3c2)CC1 [Example 15] | 2
CN1CCN(c2ccc3[nH]nc(S(=O)(=O)c4ccc(Br)cc4)c3c2)CC1 [Example 17] | 7
CN1CCN(c2ccc3[nH]nc(S(=O)(=O)c4ccccc4F)c3c2)CC1 [Example 18] | 6
CN1CCN(c2ccc3[nH]nc(S(=O)(=O)c4cccc(F)c4)c3c2)CC1 [Example 19] | 2
O=S(=O)(c1ccccc1)c1nn(-c2cccc(C(F)(F)F)c2)c2ccc(N3CCN(Cc4ccccc4)CC3)cc12 [Example 28] | 136
O=S(=O)(c1ccccc1)c1nn(CCc2ccccc2)c2ccc(N3CCNCC3)cc12 [Example 31] | 3
O=S(=O)(c1ccccc1)c1nn(-c2ccc(C(F)(F)F)cc2)c2ccc(N3CCNCC3)cc12 [Example 33] | 19
COc1cccc(-n2nc(S(=O)(=O)c3ccccc3)c3cc(N4CCNCC4)ccc32)c1 [Example 36] | 20
O=S(=O)(c1ccccc1)c1nn(-c2ccc(F)cc2)c2ccc(N3CCNCC3)cc12 [Example 37] | 4
CCCn1nc(S(=O)(=O)c2cccc3ccccc23)c2cc(N3CCN(C)CC3)ccc21 [Example 45] | 2
CN1CCN(c2ccc3c(c2)c(S(=O)(=O)c2cccc4ccccc24)nn3C)CC1 [Example 47] | 2
CN1CCN(c2ccc3c(c2)c(S(=O)(=O)c2cccc4ccccc24)nn3Cc2cccc(Cl)c2)CC1 [Example 49] | 6
CC(C)n1nc(S(=O)(=O)c2cccc3ccccc23)c2cc(N3CCN(C)CC3)ccc21 [Example 50] | 2
CC(C)Cn1nc(S(=O)(=O)c2cccc3ccccc23)c2cc(N3CCN(C)CC3)ccc21 [Example 51] | 1
CN1CCN(c2ccc3c(c2)c(S(=O)(=O)c2cccc4ccccc24)nn3Cc2ccccc2)CC1 [Example 52] | 2

Structure (SMILES) | Ki [nM]
O=S(=O)(c1cccc2ccccc12)c1n[nH]c2ccc(N3CCNCC3)cc12 [Example 53] | 1
Cc1ccc(S(=O)(=O)c2n[nH]c3ccc(N4CCN(C)CC4)cc23)cc1 [Example 56] | 5
CN1CCN(c2ccc3[nH]nc(S(=O)(=O)c4ccccc4F)c3c2)CC1 [Example 58] | 3
CN1CCN(c2ccc3[nH]nc(S(=O)(=O)c4ccc(F)cc4)c3c2)CC1 [Example 60] | 5
COc1cccc(S(=O)(=O)c2n[nH]c3ccc(N4CCN(C)CC4)cc23)c1 [Example 63] | 1
COc1ccc(S(=O)(=O)c2n[nH]c3ccc(N4CCN(C)CC4)cc23)cc1 [Example 64] | 12
CN1CCN(c2ccc3[nH]nc(S(=O)(=O)c4ccccc4Cl)c3c2)CC1 [Example 65] | 4
CN1CCN(c2ccc3[nH]nc(S(=O)(=O)c4ccc(Cl)cc4)c3c2)CC1 [Example 67] | 8
CN1CCN(c2ccc3[nH]nc(S(=O)(=O)c4ccc(F)cc4F)c3c2)CC1 [Example 68] | 14
CN1CCN(c2ccc3[nH]nc(S(=O)(=O)c4ccc(Cl)s4)c3c2)CC1 [Example 70] | 3
CC(C)c1ccc(S(=O)(=O)c2n[nH]c3ccc(N4CCN(C)CC4)cc23)cc1 [Example 71] | 4
CN1CCN(c2ccc3[nH]nc(S(=O)(=O)c4ccc5ccccc5c4)c3c2)CC1 [Example 72] | 2
CCCCc1ccc(S(=O)(=O)c2n[nH]c3ccc(N4CCN(C)CC4)cc23)cc1 [Example 74] | 26
COc1ccc(Cl)cc1S(=O)(=O)c1n[nH]c2ccc(N3CCN(C)CC3)cc12 [Example 77] | 2
CN1CCN(c2ccc3[nH]nc(S(=O)(=O)c4ccc(S(C)(=O)=O)cc4)c3c2)CC1 [Example 80] | 62
CN1CCN(c2ccc3[nH]nc(S(=O)(=O)c4ccccc4Br)c3c2)CC1 [Example 89] | 10
CN1CCN(c2ccc3[nH]nc(S(=O)(=O)c4c(Cl)cccc4Cl)c3c2)CC1 [Example 91] | 6
CN1CCN(c2cc(Cl)cc3c(S(=O)(=O)c4ccc(F)cc4)n[nH]c23)CC1 [Example 97, 5-Chloro-3[(4-fluorophenyl)sulfonyl]-7-(4-methylpiperazin-1-yl)-1H-indazole] | 12
CC(C)c1ccc(S(=O)(=O)c2n[nH]c3c(N4CCN(C)CC4)cc(Cl)cc23)cc1 [Example 98] | 22
CN1CCN(c2cc(Cl)cc3c(S(=O)(=O)c4cccc(C(F)(F)F)c4)n[nH]c23)CC1 [Example 99] | 20
CN1CCN(c2cc(Cl)cc3c(S(=O)(=O)c4cccc5ccccc45)n[nH]c23)CC1 [Example 100] | 5
CN1CCN(c2cccc3c(S(=O)(=O)c4cccc5ccccc45)n[nH]c23)CC1 [Example 101] | 5

Same assay, conditions: test compound at 1 μM; displacement of [3H]-LSD

Structure (SMILES) | inhibition at 1 µM [%]
O=S(=O)(c1cccc(F)c1)c1n[nH]c2ccc(N3CCN(Cc4ccccc4)CC3)cc12 [Example 5, 5-(4-Benzylpiperazin-1-yl)-3-[(3-fluorophenyl)sulfonyl]-1H-indazole hydrochloride] | 53
Cn1nc(S(=O)(=O)c2ccccc2)c2cc(N3CCN(Cc4ccccc4)CC3)ccc21 [Example 11, 5-(4-Benzylpiperazin-1-yl)-1-methyl-3-(phenylsulfonyl)-1H-indazole] | 67

Tested on: not given
Test: not given
Conditions: not given

Structure (SMILES) | melting point [°C]
CN1CCN(c2ccc3[nH]nc(S(=O)(=O)c4ccc(Cl)s4)c3c2)CC1 [Example 15] | > 250
CN1CCN(c2ccc3[nH]nc(S(=O)(=O)c4ccc(Br)cc4)c3c2)CC1 [Example 17] | > 250
CN1CCN(c2ccc3[nH]nc(S(=O)(=O)c4ccccc4F)c3c2)CC1 [Example 18] | 160 to 161
CN1CCN(c2ccc3[nH]nc(S(=O)(=O)c4cccc(F)c4)c3c2)CC1 [Example 19] | > 250
O=S(=O)(c1ccccc1)c1nn(-c2cccc(C(F)(F)F)c2)c2ccc(N3CCN(Cc4ccccc4)CC3)cc12 [Example 28] | 146 to 150
O=S(=O)(c1ccccc1)c1nn(CCc2ccccc2)c2ccc(N3CCNCC3)cc12 [Example 31] | 127 to 130
O=S(=O)(c1ccccc1)c1nn(-c2ccc(C(F)(F)F)cc2)c2ccc(N3CCNCC3)cc12 [Example 33] | 170 to 172
COc1cccc(-n2nc(S(=O)(=O)c3ccccc3)c3cc(N4CCNCC4)ccc32)c1 [Example 36] | 132 to 135
O=S(=O)(c1ccccc1)c1nn(-c2ccc(F)cc2)c2ccc(N3CCNCC3)cc12 [Example 37] | 159 to 161
